The values that follow come from patent publication US10729628B2, “Tyrosinase inhibitors” (Conopco, Inc., priority 2015, dated 2020).

Molecules are shown by their SMILES.

Assay [1] has as its target T1, human Tyrosinase (in the form of melanocytic extract) (Homo sapiens, UniProt P14679).
T1 construct: 2.5 mg/ml human melanocytic lysate OR; endogenous in cells; host or cells: human melanocytes (lysate/extract)
T1 sequence (P14679 19-529): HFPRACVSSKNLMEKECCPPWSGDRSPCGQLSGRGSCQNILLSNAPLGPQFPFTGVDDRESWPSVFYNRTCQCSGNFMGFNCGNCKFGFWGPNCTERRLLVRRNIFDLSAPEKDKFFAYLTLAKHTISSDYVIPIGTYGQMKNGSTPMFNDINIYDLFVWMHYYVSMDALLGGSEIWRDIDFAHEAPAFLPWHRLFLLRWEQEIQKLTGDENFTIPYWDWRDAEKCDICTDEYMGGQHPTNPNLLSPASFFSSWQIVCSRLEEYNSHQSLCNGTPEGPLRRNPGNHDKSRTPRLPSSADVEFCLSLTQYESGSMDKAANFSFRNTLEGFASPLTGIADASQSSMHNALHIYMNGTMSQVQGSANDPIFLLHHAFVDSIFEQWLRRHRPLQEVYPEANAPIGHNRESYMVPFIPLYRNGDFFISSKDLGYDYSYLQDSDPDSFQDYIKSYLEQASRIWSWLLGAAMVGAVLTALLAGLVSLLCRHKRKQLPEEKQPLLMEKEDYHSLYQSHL
Description: Tyrosinase assay by oxidation of DOPA, human tyrosinase (melanocytic extract). It counts as biochemical. As to conditions: for OD475 nm (HME) / inhibition at 100 µM / inhibition at 1000 µM / inhibition at 10 µM / % Inhibition (HME): 37° C., 45 minutes; for OD475 nm (HME): background-corrected, uninhibited enzyme control 0.141; for inhibition at 100 µM / inhibition at 1000 µM / inhibition at 10 µM: read-out: % Inhibition (HME); for inhibit the activity of tyrosinase: summary in words, at least one of human or mushroom tyrosinase, inhibitor = colour inhibited by more than 10% of control. The protocol: The (tyrosinase) inhibitory activity of a, b, c and d was measured by oxidation of DOPA. Each crown ether was tested against human Tyrosinase (in the form of melanocytic extract) and commercial (Worthington, USA) mushroom tyrosinase (MT), using the DOPA oxidation assay. Details of the assay mix are included in table 2. […] Assay examined the change (Optical Density) OD475 nm at 37° C., after 45 minutes reaction in a standard 96-well plate. All ON475 nm were corrected by subtracting the background OD475 nm value of the negative control sample lacking enzyme in the assay mix. […] The background effect of 10% DMSO on tyrosinase activity was also examined for calculation purposes (i.e. the ‘U’ sample).

For the next assay, the system named is mushroom tyrosinase (MT). Description: Tyrosinase assay by oxidation of DOPA, mushroom tyrosinase. It counts as biochemical. As to conditions: 37° C., 45 minutes; for OD475 nm (MT): background-corrected, uninhibited enzyme control 0.17. Here is the method:
The (tyrosinase) inhibitory activity of a, b, c and d was measured by oxidation of DOPA. Each crown ether was tested against human Tyrosinase (in the form of melanocytic extract) and commercial (Worthington, USA) mushroom tyrosinase (MT), using the DOPA oxidation assay. Details of the assay mix are included in table 2. [table] Assay examined the change (Optical Density) OD475 nm at 37° C., after 45 minutes reaction in a standard 96-well plate. All ON475 nm were corrected by subtracting the background OD475 nm value of the negative control sample lacking enzyme in the assay mix. […] The background effect of 10% DMSO on tyrosinase activity was also examined for calculation purposes (i.e. the ‘U’ sample).

Regarding `O=C(O)c1ccc2c(c1)OCCOCCOCCO2` [Compound a], in assay [1] (0.1 mM test compound), the “OD475 nm (HME)” value is 0.126 and the inhibition (as a rule, how much of the control response was suppressed) at 100 µM turned out to be 11%. In assay [1] (1 mM test compound), the “OD475 nm (HME)” value stood at 0.029 and the inhibition at 1000 µM turned out to be 79%. The “inhibit the activity of tyrosinase” value in assay [1] is on record as “inhibit the activity of at least one of human or mushroom tyrosinase”. In the assay on mushroom tyrosinase (MT) (0.1 mM test compound), the “% Inhibition (MT)” value worked out at 25% and the “OD475 nm (MT)” value was found to be 0.128. Besides, in the assay with mushroom tyrosinase (MT) (1 mM test compound), the “% Inhibition (MT)” value is 60% and the “OD475 nm (MT)” value worked out at 0.068.
Take `O=C(NC1CCCCC1)N(C(=O)c1ccc2c(c1)OCCOCCOCCO2)C1CCCCC1` [Compound b]: in assay [1] (0.01 mM test compound), the “OD475 nm (HME)” value was 0.125 and the inhibition at 10 µM came out at 12%. In assay [1] (1 mM test compound), the “% Inhibition (HME)” value was “No” and the “OD475 nm (HME)” value amounted to 0.162. The “inhibit the activity of tyrosinase” value in assay [1] is reported as “inhibit the activity of at least one of human or mushroom tyrosinase”. Further, in the assay on mushroom tyrosinase (MT) (0.01 mM test compound), the “% Inhibition (MT)” value was determined as 6% and the “OD475 nm (MT)” value was determined as 0.160. In the assay on mushroom tyrosinase (MT) (1 mM test compound), the “% Inhibition (MT)” value is 28% and the “OD475 nm (MT)” value worked out at 0.122.
Consider `O=C(O)c1ccc2c(c1)OCCOCCOCCOc1ccc(C(=O)O)cc1OCCOCCOCCO2` [Compound c], for which the “OD475 nm (HME)” value in assay [1] (0.01 mM test compound) worked out at 0.092; in assay [1] (0.1 mM test compound), 0.094; in assay [1] (1 mM test compound), 0.027. Also, the inhibition at 10 µM in assay [1] (0.01 mM test compound) stood at 35%. Besides, the inhibition at 100 µM in assay [1] (0.1 mM test compound) turned out to be 33%. Also, the inhibition at 1000 µM in assay [1] (1 mM test compound) stood at 81%. The “inhibit the activity of tyrosinase” value in assay [1] was “inhibit the activity of at least one of human or mushroom tyrosinase”. The “% Inhibition (MT)” value in the assay with mushroom tyrosinase (MT) (0.01 mM test compound) stood at 9%; in the assay with mushroom tyrosinase (MT) (0.1 mM test compound), 5%; in the assay on mushroom tyrosinase (MT) (1 mM test compound) it was 49%. Besides, the entries for the “OD475 nm (MT)” value in the assay with mushroom tyrosinase (MT) (0.01 mM test compound), in the assay with mushroom tyrosinase (MT) (0.1 mM test compound) and with mushroom tyrosinase (MT) (1 mM test compound) were 0.156, 0.162 and 0.087, respectively.
As to `COC(=O)C(C)(C)NC(=O)C(CC(C)C)NC(=O)C(C)NC(=O)c1ccc2c(c1)OCCOCCOCCOc1ccc(C(=O)NC(C)C(=O)NC(CC(C)C)C(=O)NC(C)(C)C(=O)OC)cc1OCCOCCOCCO2` (centres unmarked) [Compound d], in assay [1] (0.01 mM test compound), the “% Inhibition (HME)” value is “No” and the “OD475 nm (HME)” value stood at 0.144. Also, in assay [1] (0.1 mM test compound), the “OD475 nm (HME)” value was determined as 0.134 and the inhibition at 100 µM was 5%. Further, in assay [1] (1 mM test compound), the “OD475 nm (HME)” value is given as 0.110 and the inhibition at 1000 µM amounted to 23%. The “inhibit the activity of tyrosinase” value in assay [1] is recorded as “inhibit the activity of at least one of human or mushroom tyrosinase”. Further, in the assay on mushroom tyrosinase (MT) (0.01 mM test compound), the “% Inhibition (MT)” value is listed as 19% and the “OD475 nm (MT)” value came to 0.137. Besides, in the assay with mushroom tyrosinase (MT) (0.1 mM test compound), the “% Inhibition (MT)” value was 58% and the “OD475 nm (MT)” value worked out at 0.071. In the assay on mushroom tyrosinase (MT) (1 mM test compound), the “% Inhibition (MT)” value was found to be 69% and the “OD475 nm (MT)” value turned out to be 0.053.
As to `O=c1cc(CO)occ1O` [Kojic acid, reference compound], the “% Inhibition (MT)” value with mushroom tyrosinase (MT) (0.1 mM test compound) is recorded as 23%; with mushroom tyrosinase (MT) (0.25 mM test compound), 35%; with mushroom tyrosinase (MT) (0.5 mM test compound), 51%. In addition, the “OD475 nm (MT)” value with mushroom tyrosinase (MT) (0.1 mM test compound) worked out at 0.131; in the assay with mushroom tyrosinase (MT) (0.25 mM test compound), 0.111; with mushroom tyrosinase (MT) (0.5 mM test compound), 0.084.
